From BindingDB's records for doi:10.1016/s0969-8051(99)00080-3 (Emory University, 2000) come the findings set out here.

Assay [1] concerns the target Sodium-dependent dopamine transporter (Homo sapiens, UniProt Q01959).
In assay [2] the target is Sodium-dependent noradrenaline transporter (Homo sapiens, UniProt P23975).
Sequence of Sodium-dependent noradrenaline transporter (P23975 whole entry): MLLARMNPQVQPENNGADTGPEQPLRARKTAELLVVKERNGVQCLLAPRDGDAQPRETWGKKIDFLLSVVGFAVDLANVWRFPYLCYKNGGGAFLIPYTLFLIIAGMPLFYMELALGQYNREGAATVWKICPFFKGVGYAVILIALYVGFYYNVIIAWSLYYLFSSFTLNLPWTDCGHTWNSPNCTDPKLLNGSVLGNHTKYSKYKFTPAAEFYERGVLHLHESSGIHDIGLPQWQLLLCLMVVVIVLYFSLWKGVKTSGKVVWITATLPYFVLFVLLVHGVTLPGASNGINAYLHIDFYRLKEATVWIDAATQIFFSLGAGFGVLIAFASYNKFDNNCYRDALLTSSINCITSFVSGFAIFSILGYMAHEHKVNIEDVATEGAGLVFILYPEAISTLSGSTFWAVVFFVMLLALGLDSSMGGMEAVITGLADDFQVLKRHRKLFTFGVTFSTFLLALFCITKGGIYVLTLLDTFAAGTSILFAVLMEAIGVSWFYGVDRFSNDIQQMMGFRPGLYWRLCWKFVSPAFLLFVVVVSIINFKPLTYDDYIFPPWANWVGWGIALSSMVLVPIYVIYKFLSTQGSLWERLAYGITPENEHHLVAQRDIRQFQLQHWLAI

Sequence of Sodium-dependent dopamine transporter (Q01959 whole entry): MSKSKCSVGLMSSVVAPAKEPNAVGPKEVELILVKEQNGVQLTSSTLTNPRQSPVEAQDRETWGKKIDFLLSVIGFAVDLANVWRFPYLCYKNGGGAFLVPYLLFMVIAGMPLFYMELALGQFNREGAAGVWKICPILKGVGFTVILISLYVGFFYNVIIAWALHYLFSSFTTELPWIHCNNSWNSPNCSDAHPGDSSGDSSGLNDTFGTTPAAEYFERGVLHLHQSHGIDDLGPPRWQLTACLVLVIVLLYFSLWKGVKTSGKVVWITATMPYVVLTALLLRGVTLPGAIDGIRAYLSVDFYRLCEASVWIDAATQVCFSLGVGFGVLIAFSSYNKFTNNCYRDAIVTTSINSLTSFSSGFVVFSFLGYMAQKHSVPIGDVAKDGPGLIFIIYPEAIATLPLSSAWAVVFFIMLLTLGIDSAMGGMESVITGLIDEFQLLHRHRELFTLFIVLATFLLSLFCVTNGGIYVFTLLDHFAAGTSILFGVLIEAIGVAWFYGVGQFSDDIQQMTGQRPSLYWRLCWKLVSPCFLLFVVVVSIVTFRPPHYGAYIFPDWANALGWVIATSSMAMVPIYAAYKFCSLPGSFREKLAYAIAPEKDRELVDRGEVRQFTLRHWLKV

Usually Ki stands for the equilibrium dissociation constant of an inhibitor or competing ligand from its target. Turning to `COC(=O)C1C(c2ccc(Cl)cc2)CC2CCC1N2CCF` (configuration not stated) [MOLI000038], the Ki was 0.00153 µM in assay [1] and 0.24 µM in assay [2].
